Experimental data from patent US20190151277A1, “USES OF BIOACTIVE LIPIDS” (NESTEC S.A., priority 2014, published 2019).

Experiments:
Type in all cases: cell-based
human islets [1] = assay: Acute insulin secretion assay with human islets from a lean non-diabetic donor; details: 2 mM and 20 mM glucose, 15-deoxy-Δ12,14-PGJ2-2-G at 250 μM
Method: Insulin secretion assay was performed in low glucose (2 mM) and high glucose (20 mM) conditions with human islets from a lean non-diabetic donor. […] Both bioactive lipids improved glucose stimulated insulin release acutely. The results are expressed as ng secreted insulin per 10 islets.

mouse islets = assay: GSIS in mouse islets after 72 hours treatment; details: 72 hours at 50 μM, 2 mM and 20 mM glucose
Method: (§1) After PGD2G treatment, glucose stimulated insulin release was measured in low glucose (2 mM) and high glucose (20 mM) conditions in KRB solution. The insulin release is expressed as released from the total content of insulin in Ins1E cells and mouse islets.

Ins1E cells = assay: GSIS in Ins1E cells after 72 hours treatment; details: 72 hours at 50 μM, 2 mM and 20 mM glucose
Method: as §1

[2] = Acute glucose stimulated insulin release normalized to total protein content; details: 2 mM and 20 mM glucose, 470 μM, 2.3 nM, 230 nM bioactive lipid
Method: Glucose stimulated insulin release was measured in low glucose (2 mM) and high glucose (20 mM) in the presence of various concentrations (470 μM, 2.3 nM, 230 nM) of the bioactive lipid. The bioactive lipid improved glucose stimulated insulin release particularly at concentrations from 2.5 nM to 250 nM. The result are presented as insulin release normalized to total protein content.

human islets [3] = assay: Beta cell function and incretin response in human islets from donors; details: lean type 2 diabetic and non-diabetic obese donors, 50 μM, 72 hours
Method: Glucose stimulated insulin release was measured in low glucose (2 mM), high glucose (20 mM) and high glucose (20 mM)+0.1 uM Exendin4

human islets [4] = assay: Glucose stimulated insulin release in human islets after cytokine-induced dysfunction; details: human islets of three donors, 50 μM 72 hours, cytokine mix last 48 hours
Method: During the last 48 hours, the cytokine mix was added (IL1beta 10 ng/ml, TNF alpha 25 ng/ml and INFgamma 10 ng/ml). Glucose stimulated insulin release was measured in low glucose (2 mM) and high glucose (20 mM) conditions. The bioactive lipid was able to improve glucose stimulated insulin release after cytokine-induced dysfunction.

human H716 cells = assay: GLP-1 secretion assay in human H716 cells; details: 0.23 nM to 2.3 nM
Method: GLP-1 secretion assay was performed using human H716 cells in the presence of various concentration of the bioactive lipid from 0.23 nM to 2.3 nM.

| Compound | insulin secretion (ng secreted insulin per 10 islets) (human islets [1]) | glucose stimulated insulin release (of total insulin content) (mouse islets) | glucose stimulated insulin release (of total insulin content) (Ins1E cells) | insulin release normalized to total protein content [2] | beta cell function (glucose stimulated insulin release) (human islets [3]) | incretin response (20 mM glucose + 0.1 uM Exendin4) (human islets [3]) | glucose stimulated insulin release after cytokine-induced dysfunction (human islets [4]) | GLP1 release normalized to total protein content (human H716 cells) |
| --- | --- | --- | --- | --- | --- | --- | --- | --- |
| CCCCC/C=C/C=C1/C(=O)C=C[C@@H]1C/C=C\CCCC(=O)OC(CO)CO [15-deoxy-Δ12,14-PGJ2-2-G, 11-oxo-5Z,9,12E,4E-prostatetraenoic acid-2-glycerol ester] | increased insulin secretion both with and without the presence of a white adipose tissue (WAT) fraction | – | – | – | – | – | – | – |
| CCCCC[C@H](O)/C=C/[C@H]1C(=O)C[C@H](O)[C@@H]1C/C=C\CCCC(=O)OCC(O)CO (stereo partly drawn) [PGD2G, 9a, 15S-dihydroxy-11-oxo-5Z,13E-prostadienoic acid 1-glyceryl ester] | also increased insulin secretion compared to control tissues | increased insulin secretion | increased insulin secretion | acutely stimulated insulin secretion upon stimulation with glucose | improved beta cell function | improved | protected human islets against cytokine induced dysfunction | increased GLP1 secretion |
